Results from publication PMC3808368 (2013).

How the values were obtained:
[1] = test system: ATP aptamer (ATP aptamer G-quadruplex) (DNA, aptamer) AACCTGGGGGAGTATTGCGGAGGAAGGT; assay: fluorescence, tracer in G4-FID; conditions: 100 mM KCl, 50 mM Tris-HCl pH 7.0, 0.25 µM DNA, 0.5 µM thiazole orange
[2] = test system: ATP aptamer (ATP aptamer G-quadruplex) (DNA, aptamer) AACCTGGGGGAGTATTGCGGAGGAAGGT; assay: G4-FID, thiazole orange displacement; conditions: 100 mM KCl; 50 mM Tris-HCl pH 7.0; 0.25 µM DNA; 0.5 µM thiazole orange displaced
[3] = test system: ssDNA (DNA, single strand) GAAATTCTTAAGTGCGATCGAG; assay: luminescence enhancement of complex 2; conditions: 50 mM KCl; 20-25 mM Tris-HCl pH 7.0; 1 µM complex, 5 µM DNA; minimal luminescence change
[4] = test system: HTS (DNA, G4) TTAGGGTTAGGGTTAGGGTTAGGG; assay: luminescence enhancement of complex 2; conditions: 50 mM KCl; 20-25 mM Tris-HCl pH 7.0; 1 µM complex, 5 µM DNA; up to 8-fold enhancement
[5] = test system: ATP aptamer duplex (ATP aptamer + complementary strand) (DNA, duplex) AACCTGGGGGAGTATTGCGGAGGAAGGT/ACCTTCCTCCGCAATACTCCCCCAGGTT; assay: luminescence enhancement of complex 2; conditions: none added; 20 mM Tris-HCl pH 7.3, 25°C; slightly emissive without ATP
[6] = test system: H21 (DNA, G4) GGGTTAGGGTTAGGGTTAGGG; assay: luminescence enhancement of complex 2; conditions: 50 mM KCl; 20-25 mM Tris-HCl pH 7.0; 1 µM complex, 5 µM DNA; up to 8-fold enhancement

| binding [1] | G4DC50 [2] [µM] | binding [3] | binding [4] | binding [5] | binding [6] | Compound |
| --- | --- | --- | --- | --- | --- | --- |
| yes |  |  |  |  |  | CN1C(=Cc2cc[n+](C)c3ccccc23)Sc2ccccc21 |
|  | > 6 |  |  |  |  | [Ir+3].[c-]1ccccc1-c1ccccn1.[c-]1ccccc1-c1ccccn1.c1ccc2nc(-c3ccc4ccccc4n3)ccc2c1 |
|  | 5 | no | yes | weak | yes | [Ir+3].[c-]1ccccc1-c1nccc2ccccc12.[c-]1ccccc1-c1nccc2ccccc12.c1ccc2nc(-c3ccc4ccccc4n3)ccc2c1 |
